# Data taken from patent publication US20240245649A1, “Method and Composition for Mimicking Caloric Restriction by Administration of Ergothioneine” (NANJING NUTRABUILDING BIO-TECH CO., LTD., priority 2021, published 2024).
# How the values were obtained:
# [1] = animals and humans, even at high doses; cited from earlier work
# [2] = test system: tumor necrosis factor-α (TNF-α) and interleukin (IL)-6; assay: Inflammatory cytokines TNF-α and IL-6 by ELISA kits in high-fat diet mice; type: in vivo
# Procedure: (§1) Mice group were named after the diet they consumed. Group A mice was fed ad libitum (control), and group B mice was on high-fat diet (HFD), Group C was fed restricted amount of the HFD diet to achieve caloric restriction (HFD+CR), and Group D was fed high-fat diet and supplemented with Ergothioneine (HFD+EGT), the concentration of Ergothioneine is 3.25 mg/kg. All groups of mice were housed individually, and fed for months of interventions and had free access to water. Health status was monitored during the intervention. At the end of each intervention, body composition, insulin sensitivity, blood glucose level, different blood parameters and lifespan of the mice were studied. After treatment, blood is taken to measure high-density lipoprotein (HDL), low-density lipoprotein (LDL) and HOmeostasis Model Assessment-Insulin Resistance (HOMA-IR). The HOMA-IR index was calculated using the following formula: HOMA-IR=[fasting glucose levels (mmol/L)]×[fasting serum insulin (mU/L)]/22.5. At the end of the experiment, AKT and phospho-AKT (Ser473) protein levels in skeletal muscle after 2 IU/kg insulin stimulation for 15 min were determined by immunoblotting (n=3-6). The concentrations of inflammatory cytokines including tumor necrosis factor-α (TNF-α) and interleukin (IL)-6, and oxidative stress markers including malonaldehyde (MDA) and superoxide dismutase (SOD) were detected by ELISA kits.
# high-fat diet (HFD) mice [3] = assay: Blood LDL and HDL in high-fat diet mice supplemented with Ergothioneine; type: in vivo
# Procedure: as §1
# high-fat diet (HFD) mice [4] = assay: HOMA-IR (fasting glucose x fasting serum insulin /22.5) in high-fat diet mice; type: in vivo
# Procedure: as §1
# [5] = test system: AKT and phospho-AKT (Ser473); assay: AKT and phospho-AKT (Ser473) protein levels in skeletal muscle after insulin stimulation, immunoblotting; type: in vivo, mice
# Procedure: as §1
# [6] = test system: malonaldehyde (MDA) and superoxide dismutase (SOD); assay: Oxidative stress markers MDA and SOD by ELISA kits in high-fat diet mice; type: in vivo
# Procedure: as §1
structure (smiles),measurement,setting,value
C[N+](C)(C)[C@@H](Cc1c[nH]c(=S)[nH]1)C(=O)[O-] [Ergothioneine],toxicity or adverse effects associated with administration,[1],no toxicity or adverse effects
same,content of TNF-α,"[2]; HFD+EGT group compared with HFD group, FIG. 5",remarkably decreased
same,content of IL-6,"[2]; HFD+EGT group compared with HFD group, FIG. 6",remarkably decreased
same,level of IL-6 decreased by Ergothioneine to,"[2]; broadest of the nested bounds printed (38, 35, 30, 28, 26, 22)",≤ 38 pg/mL
same,level of TNF-α decreased by Ergothioneine to,"[2]; broadest of the nested bounds printed (40, 38, 35, 32, 30, 28, 26)",≤ 40 pg/mL
same,level of LDL,"high-fat diet (HFD) mice [3]; HFD+EGT (Group D), Ergothioneine 3.25 mg/kg, vs HFD group, FIG. 1",significantly decreased
same,level of HDL,"high-fat diet (HFD) mice [3]; HFD+EGT (Group D), Ergothioneine 3.25 mg/kg, vs HFD group, FIG. 2",significantly increased
same,LDL level decreased by Ergothioneine to,"high-fat diet (HFD) mice [3]; broadest of the nested bounds printed (24, 22, 20, 18, 15)",≤ 24 mg/dL
same,HDL level increased by Ergothioneine to,"high-fat diet (HFD) mice [3]; broadest of the nested bounds printed (40, 42, 44, 46, 48, 50)",≥ 40 mg/dL
same,HOMA-IR,"high-fat diet (HFD) mice [4]; HFD+EGT group vs HFD group, FIG. 3",lower HOMA-IR than HFD group
same,HOMA-IR decreased by Ergothioneine to,"high-fat diet (HFD) mice [4]; broadest of the nested bounds printed (28, 26, 24, 22, 20, 15)",≤ 28
same,p-AKT/AKT increased by Ergothioneine to,"[5]; broadest of the nested bounds printed (0.25, 0.35, 0.40, 0.45, 0.53, 0.60)",≥ 0.25
same,insulin-stimulated AKT phosphorylation (p-AKT)/AKT relative protein expression,"[5]; skeletal muscle, 2 IU/kg insulin for 15 min, HFD+EGT vs HFD group, FIG. 4",higher than HFD group
same,MDA expression,"[6]; EGT compared with HFD group, FIG. 7",reduction of MDA expression
same,SOD expression,"[6]; EGT compared with HFD group, FIG. 8",elevation of SOD expression
same,level of MDA decreased by Ergothioneine to,"[6]; broadest of the nested bounds printed (15, 13, 12, 11, 10, 8)",≤ 15 nmol/mL
same,level of SOD increased by Ergothioneine to,"[6]; broadest of the nested bounds printed (45, 48, 50, 51, 52, 55)",≥ 45 U/mL
